# pEC50: −log10 of the molar value.
# Target: T1, APJ Receptor (Homo sapiens, UniProt P35414)
# T1 sequence (P35414 1-380): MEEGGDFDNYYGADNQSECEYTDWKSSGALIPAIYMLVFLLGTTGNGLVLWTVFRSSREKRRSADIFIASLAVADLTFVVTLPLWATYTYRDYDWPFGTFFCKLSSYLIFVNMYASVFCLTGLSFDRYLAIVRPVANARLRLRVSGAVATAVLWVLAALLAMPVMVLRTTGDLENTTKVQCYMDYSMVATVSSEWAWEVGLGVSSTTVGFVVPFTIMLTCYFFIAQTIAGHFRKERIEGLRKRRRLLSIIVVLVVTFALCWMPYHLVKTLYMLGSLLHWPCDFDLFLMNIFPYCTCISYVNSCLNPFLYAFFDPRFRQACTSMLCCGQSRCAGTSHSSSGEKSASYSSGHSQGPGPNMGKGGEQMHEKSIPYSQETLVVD
# Assay: APJ cAMP assay: inhibition of forskolin-stimulated cAMP, enzyme fragment complementation, in CHO-K1 cells stably expressing the APJ Receptor
# Type: cell-based
# Settings: CHO-K1 cell line (DiscoverX) stably expressing APJ Receptor; EC80 forskolin; 30 minutes at 37° C.; read-out: APJ cAMP EC50 Potency range
# Description: Activation of APJ receptor is known to inhibit forskolin-stimulated cyclic AMP (cAMP) production in cells in a pertussis toxin-sensitive manner which indicates primary coupling to the GαI subunit of the G protein heterotrimeric complex. In addition to signaling through G protein and inhibition of cAMP, APJ receptor activation also results in β-arrestin recruitment, receptor internalization and activation of extracellular-regulated kinases (ERKs).
# In order to optimize functional activity directed toward Gi coupling we utilized a CHO-K1 cell line developed by DiscoverX stably expressing the APJ Receptor. Cells expressing APJR receptor were plated in a 384-well microtiter plates and incubated overnight at 37° C. with 5% CO2 to allow the cells to attach and grow. Media was then aspirated from the cells and replaced with 15 uL 2:1 Hanks Balanced Salt Solution (HBSS)/10 mM Hepes. cAMP XS+ Ab reagent. Five microliters (5 uL) of previously generated compound sample stocks at 4× final concentration in assay buffer containing 4×EC80 forskolin were then added to the cells and allowed to incubate at 37° C. for 30 minutes.
# After incubation the assay signal was generated using a technology termed enzyme fragment complementation (EFC). In EFC the enzyme B-galactosidase is split into two complementary portions (EA and ED). The fragment ED is fused to cAMP and in the assay format competes with endogenous cAMP for binding to a cAMP specific antibody. Activated B-Gal is formed when exogenous EA fragment binds to free ED-cAMP (not bound to cAMP specific antibody). Activated enzyme levels are detected through conversion of B-gal chemiluminescent substrate which generates a detectable luminescence signal and read on standard microtiter plate.
# The methodology for detection of cAMP using EFC requires incubation with 20 uL of cAMP XS+ ED/CL lysis cocktail for one hour followed by incubation with 20 uL cAMP XS+ EA reagent for three hours at room temperature. Microplates were read following signal generation with a PerkinElmer Envision instrument utilizing chemiluminescent signal detection.
# Compound activity was analyzed using CBIS data analysis suite (ChemInnovation, CA).
# Percentage activity was calculated using the following formula: % Activity=[…]×(1−(mean RLU of test sample−mean RLU of Max control)/(mean RLU of vehicle control−mean RLU of Max control))
# The biological activity of the exemplified compounds of this invention determined by the assay described above is shown in Table 1. The APJ cAMP EC50 potency ranges are as follows: A: EC50<1 nM; B: 1≤EC50<100 nM; and C: 100≤EC50<10,000 nM.
row,SMILES,pEC50
1,"CCOc1cccc(-c2nnc(C(=O)NS(=O)(=O)Cc3ncn(C)n3)n2-c2c(OC)cccc2OC)n1 [Example 54, 4-(2,6-Dimethoxyphenyl)-5-(6-ethoxypyridin-2-yl)-N-(((1-methyl-1H-1,2,4-triazol-3-yl)methyl)sulfonyl)-4H-1,2,4-triazole-3-carboxamide]",> 9.00
2,"COc1cccc(OC)c1-n1c(C(=O)NS(=O)(=O)Cc2ncn(C)n2)nnc1-c1ccc(C)o1 [Example 55, 4-(2,6-Dimethoxyphenyl)-N-(((1-methyl-1H-1,2,4-triazol-3-yl)methyl)sulfonyl)-5-(5-methylfuran-2-yl)-4H-1,2,4-triazole-3-carboxamide]",> 9.00
3,"CCOc1cccc(-c2nnc(C(=O)NS(=O)(=O)Cc3cccnc3)n2-c2c(OC)cccc2OC)n1 [Example 56, 4-(2,6-Dimethoxyphenyl)-5-(6-ethoxypyridin-2-yl)-N-((pyridin-3-ylmethyl)sulfonyl)-4H-1,2,4-triazole-3-carboxamide]",> 9.00
4,"CCOc1cccc(-c2nnc(C(=O)NS(=O)(=O)C(C)Cc3ccccc3)n2-c2c(OC)cccc2OC)n1 (stereo not drawn) [Example 57, 4-(2,6-Dimethoxyphenyl)-5-(6-ethoxypyridin-2-yl)-N-((1-phenylpropan-2-yl)sulfonyl)-4H-1,2,4-triazole-3-carboxamide]",> 9.00
5,"COc1cccc(OC)c1-n1c(C(=O)NS(=O)(=O)Cc2ncccn2)nnc1-c1cccc(OC(F)(F)F)n1 [Example 58, 4-(2,6-Dimethoxyphenyl)-N-((pyrimidin-2-ylmethyl)sulfonyl)-5-(6-(trifluoromethoxy)pyridin-2-yl)-4H-1,2,4-triazole-3-carboxamide]",7.00 to 9.00
6,"COc1cccc(OC)c1-n1c(C(=O)NS(=O)(=O)Cc2ncccn2)nnc1-c1cncc(C)c1 [Example 59, 4-(2,6-Dimethoxyphenyl)-5-(5-methylpyridin-3-yl)-N-((pyrimidin-2-ylmethyl)sulfonyl)-4H-1,2,4-triazole-3-carboxamide]",5.00 to 7.00
7,"COc1cccc(-c2nnc(C(=O)NS(=O)(=O)Cc3ccccc3)n2-c2c(Cl)cccc2Cl)n1 [Example 60, N-(benzylsulfonyl)-4-(2,6-dichlorophenyl)-5-(6-methoxypyridin-2-yl)-4H-1,2,4-triazole-3-carboxamide]",5.00 to 7.00
8,"COc1cccc(-c2nnc(C(=O)NS(=O)(=O)Cc3ccccc3)n2-c2c(F)cccc2F)n1 [Example 61, N-(benzylsulfonyl)-4-(2,6-difluorophenyl)-5-(6-methoxypyridin-2-yl)-4H-1,2,4-triazole-3-carboxamide]",5.00 to 7.00
9,"COc1cccc(-c2nnc(C(=O)NS(=O)(=O)Cc3ccccc3)n2-c2c(OC)cccc2C(F)(F)F)n1 [Example 62, N-(benzylsulfonyl)-4-(2-methoxy-6-(trifluoromethyl)phenyl)-5-(6-methoxypyridin-2-yl)-4H-1,2,4-triazole-3-carboxamide]",7.00 to 9.00
10,"COc1cccc(-c2nnc(C(=O)NS(=O)(=O)Cc3ccccc3)n2-c2c(F)cccc2OC)n1 [Example 63, N-(benzylsulfonyl)-4-(2-fluoro-6-methoxyphenyl)-5-(6-methoxypyridin-2-yl)-4H-1,2,4-triazole-3-carboxamide]",7.00 to 9.00
11,"COc1ccc(Cn2nc(C3CC3)nc2-c2nnc(C(=O)NS(=O)(=O)Cc3ccccc3)n2-c2c(OC)cccc2OC)cc1 [Example 64, N-(benzylsulfonyl)-5-cyclopropyl-4′-(2,6-dimethoxyphenyl)-2-(4-methoxybenzyl)-2H,4′H-[3,3′-bi(1,2,4-triazole)]-5′-carboxamide]",5.00 to 7.00
12,"COc1cccc(OC)c1-n1c(C(=O)NS(=O)(=O)Cc2ccccc2)nnc1-c1nc(C2CC2)n[nH]1 [Example 65, N-(benzylsulfonyl)-5-cyclopropyl-4′-(2,6-dimethoxyphenyl)-2H,4′H-[3,3′-bi(1,2,4-triazole)]-5′-carboxamide]",5.00 to 7.00
